Measured values published in US9497970B2, “Pesticide compounds” (priority 2013, dated 2016).

Key:
Assay type in all cases: in vivo
[1] = system: Diamond Back Moth (Plutella xylostella); test: B.1 Diamond Back Moth (Plutella xylostella), cabbage leaf dip; details: foliar, 500 ppm, 3rd instar larvae on dipped cabbage leaves, 72 hours after treatment, in comparison with untreated controls, read-out: mortality
Method in brief: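 Cabbage leaves dipped in compound in 1:1 water:acetone with 0.01% Kinetic HV surfactant, air-dried, then infested with ten 3rd-instar larvae on moist filter paper. Mortality scored at 72 h after treatment; feeding damage rated on a 0-100% scale.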

[2] = system: Boll Weevil (Anthonomus grandis); test: B.3 Boll Weevil (Anthonomus grandis), microtiter plate insect diet; details: 120 h, 800 ppm, sprayed onto insect diet, 5 days, in comparison with untreated controls, read-out: mortality (egg and larval)
Method in brief: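 Compounds in 25% DMSO/water sprayed at several concentrations onto insect diet in microtiter wells holding 5–10 A. grandis eggs, two replicates. Plates kept 5 days at about 25±1 °C and 75±5% RH. Egg and larval mortality scored visually.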

[3] = system: Mediterranean Fruitfly (Ceratitis capitata); test: B.6 Mediterranean Fruitfly (Ceratitis capitata), microtiter plate insect diet; details: 120 h, 800 ppm, sprayed onto insect diet, 5 days, in comparison with untreated controls, read-out: mortality (egg and larval)
Method in brief: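 Insect diet with 50-80 C. capitata eggs sprayed with compounds formulated in 75% water/25% DMSO, at different concentrations, two replications. Incubation at about 28±1° C and 80±5% relative humidity for 5 days, then egg and larval mortality assessed visually.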

[4] = system: Tobacco Budworm (Heliothis virescens); test: B.7 Tobacco Budworm (Heliothis virescens) I, microtiter plate insect diet; details: 120 h, 800 ppm, sprayed onto insect diet, 5 days, in comparison with untreated controls, read-out: mortality (egg and larval)
Method in brief: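 96-well plates with insect diet and 15-25 H. virescens eggs; compounds in 75% water/25% DMSO sprayed onto diet at several concentrations, two replicates. Plates held at about 28±1° C. and 80±5% relative humidity for 5 days, then egg and larval mortality scored visually.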

[5] = system: Green Peach Aphid (Myzus persicae); test: B.9 Green Peach Aphid (Myzus persicae), sprayed bell pepper plants; details: 120 h, infested bell pepper plants sprayed, after 5 days, in comparison with untreated controls
Method: B.9 Green Peach Aphid (Myzus persicae)
The active compounds were formulated by a Tecan liquid handler in 100% cyclohexa none as a 10,000 ppm solution supplied in tubes. The 10,000 ppm solution was serially diluted in 100% cyclohexanone to make interim solutions. These served as stock solutions for which final dilutions were made by the Tecan in 50% acetone:50% water (v/v) into 5 or 10 ml glass vials. A nonionic surfactant (Kinetic®) was included in the solution at a volume of 0.01% (v/v). The vials were then inserted into an automated electrostatic sprayer equipped with an atomizing nozzle for application to plants/insects.
Bell pepper plants at the first true-leaf stage were infested prior to treatment by placing heavily infested leaves from the main colony on top of the treatment plants. Aphids were allowed to transfer overnight to accomplish an infestation of 30-50 aphids per plant and the host leaves were removed. The infested plants were then sprayed by an automated electrostatic plant sprayer equipped with an atomizing spray nozzle. The plants were dried in the sprayer fume hood, removed, and then maintained in a growth room under fluorescent lighting in a 24-hr photoperiod at about 25° C. and about 20-40% relative humidity. Aphid mortality on the treated plants, relative to mortality on untreated control plants, was determined after 5 days.

[6] = system: Orchid thrips (dichromothrips corbetti); test: B.12 Orchid thrips (dichromothrips corbetti), floral-immersion technique; details: adult thrips on dipped orchid petals, 72 hours after treatment, in comparison with untreated controls
Method: B.12 Orchid thrips (dichromothrips corbetti)
Dichromothrips corbetti adults used for bioassay were obtained from a colony maintained continuously under laboratory conditions. For testing purposes, the test compound is diluted in a 1:1 mixture of acetone:water (vol:vol), plus Kinetic HV at a rate of 0.01% v/v.
Thrips potency of each compound was evaluated by using a floral-immersion technique. All petals of individual, intact orchid flowers were dipped into treatment solution and allowed to dry in Petri dishes. Treated petals were placed into individual resealable plastic along with about 20 adult thrips. All test arenas were held under continuous light and a temperature of about 28° C. for duration of the assay. After 3 days, the numbers of live thrips were counted on each petal. The percent mortality was recorded 72 hours after treatment.

[7] = system: Southern Armyworm (Spodoptera eridania), 2nd Instar Larvae; test: B.10 Southern Armyworm (Spodoptera eridania), 2nd Instar Larvae, sprayed lima bean plants; details: 96 h, 300 ppm, larvae on sprayed lima bean plants, 4 days after treatment, in comparison with untreated controls, read-out: mortality
Method: B.10 Southern Armyworm (Spodoptera eridania), 2nd Instar Larvae
The active compounds were formulated by a Tecan liquid handler in 100% cyclohexanone as a 10,000 ppm solution supplied in tubes. The 10,000 ppm solution was serially diluted in 100% cyclohexanone to make interim solutions. These served as stock solutions for which final dilutions were made by the Tecan in 50% acetone:50% water (v/v) into 5 or 10 ml glass vials. A nonionic surfactant (Kinetic®) was included in the solution at a volume of 0.01% (v/v). The vials were then inserted into an automated electrostatic sprayer equipped with an atomizing nozzle for application to plants/insects.
Lima bean plants (variety Sieva) were grown 2 plants to a pot and selected for treatment at the 1st true leaf stage. Test solutions were sprayed onto the foliage by an automated electrostatic plant sprayer equipped with an atomizing spray nozzle. The plants were dried in the sprayer fume hood and then removed from the sprayer. Each pot was placed into perforated plastic bags with a zip closure. About 10 to 11 armyworm larvae were placed into the bag and the bags zipped closed. Test plants were maintained in a growth room at about 25° C. and about 20-40% relative humidity for 4 days, avoiding direct exposure to fluorescent light (24 hour photoperiod) to prevent trapping of heat inside the bags. Mortality and reduced feeding were assessed 4 days after treatment, compared to untreated control plants.

[8] = system: Yellow Fever Mosquito (Aedes aegypti); test: whole plant or invertebrate; details: 48 h, freshly hatched larvae in tap water, 2 days, in comparison with untreated controls, read-out: mortality (larval)
Method: B.11 Yellow Fever Mosquito (Aedes aegypti)
For evaluating control of yellow fever mosquito (Aedes aegypti) the test unit consisted of 96-well-microtiter plates containing 200 μl of tap water per well and 5-15 freshly hatched A. aegypti larvae.
The active compounds were formulated using a solution containing 75% (v/v) water and 25% (v/v) DMSO. Different concentrations of formulated compounds or mixtures were sprayed onto the insect diet at 2.5 μl, using a custom built micro atomizer, at two replications.

Cc1ccc(NC(=S)N/N=C/c2ccc3c(ccc4c3ncn4-c3ccc(OC(F)(F)F)cc3)c2)c(C)c1 [C-2, 1-(2,4-dimethylphenyl)-3-[(E)-[3-[4-(trifluoromethoxy)phenyl]benzo[e]benzimidazol-7-yl]methyleneamino] thiourea]
≥ 75%: mortality at 500 ppm [1] | mortality at 800 ppm [2] | mortality at 800 ppm [3] | mortality at 800 ppm [4] | mortality at 800 ppm [5]

Cc1cccc(C)c1NC(=S)N/N=C/c1ccc2c(c1)CCc1c-2noc1-c1ccc(OC(F)(F)F)cc1 [C-7, 1-(2,6-dimethylphenyl)-3-[(E)-[3-[4-(trifluoromethoxy)phenyl]-4,5-dihydrobenzo[g][2,1]benzoxazol-7-yl]methyleneamino]thiourea]
≥ 75%: mortality at 800 ppm [4] | mortality at 800 ppm [5] | mortality at 500 ppm [6]

CCc1ccccc1NC(=S)N/N=C/c1ccc2c(ccc3c2ncn3-c2ccc(OC(F)(F)F)cc2)c1 [C-22, 3-(2-ethylphenyl)-1-[[3-[4-(trifluoromethoxy)phenyl]-9aH-benzo[e]benzimidazol-7-ylidene]methylimino] isothiourea]
≥ 75%: mortality at 500 ppm [1] | mortality at 800 ppm [2] | mortality at 800 ppm [3] | mortality at 800 ppm [4] | mortality at 300 ppm [7] | mortality at 800 ppm [8] | mortality at 500 ppm [6]

Cc1ccccc1NC(=S)N/N=C/c1ccc2c(ccc3c2ncn3-c2ccc(OC(F)(F)F)cc2)c1 [C-23, 3-(o-tolyl)-1-[[3-[4-(trifluoromethoxy)phenyl]-9aH-benzo[e]benzimidazol-7-ylidene]methylimino]isothiourea]
≥ 75%: mortality at 500 ppm [1] | mortality at 800 ppm [2] | mortality at 800 ppm [3] | mortality at 800 ppm [4] | mortality at 300 ppm [7] | mortality at 500 ppm [6]

O=[N+]([O-])c1ccccc1NC(=S)N/N=C/c1ccc2c(ccc3c2ncn3-c2ccc(OC(F)(F)F)cc2)c1 [C-31, 3-(2-nitrophenyl)-1-[[3-[4-(trifluoromethoxy)phenyl]-9aH-benzo[e]benzimidazol-7-ylidene]methylimino] isothiourea]
≥ 75%: mortality at 800 ppm [2] | mortality at 800 ppm [4] | mortality at 800 ppm [5]

FC(F)(F)Oc1ccc(-n2nnc3c4ccc(/C=N/NC(=S)Nc5c(Cl)cccc5Cl)cc4ccc32)cc1 [C-57, 1-(2,6-dichlorophenyl)-3-[(E)-[3-[4-(trifluoromethoxy)phenyl]benzo[e]benzotriazol-7-yl]methyleneamino] thiourea]
≥ 75%: mortality at 800 ppm [5]

Cc1cccc(C)c1NC(=S)N/N=C/c1ccc2c(ccc3c(-c4ccc(OC(F)(F)F)cc4)onc32)c1 [C-84, 1-(2,6-dimethylphenyl)-3-[(E)-[3-[4-(trifluoromethoxy)phenyl]benzo[g][2,1]benzoxazol-7-yl]methyleneamino] thiourea]
≥ 75%: mortality at 800 ppm [3] | mortality at 800 ppm [4] | mortality at 800 ppm [5]

Cc1cccc(C)c1NC(=S)N(C)/N=C/c1ccc2c(ccc3c2ncn3-c2ccc(OC(F)(F)F)cc2)c1 [C-85, 3-(2,6-dimethylphenyl)-1-methyl-1-[(E)-[3-[4-(trifluoromethoxy)phenyl]benzo [e]benzimidazol-7-yl]methyleneamino] thiourea]
≥ 75%: mortality at 500 ppm [1] | mortality at 800 ppm [2] | mortality at 800 ppm [3] | mortality at 800 ppm [4] | mortality at 300 ppm [7] | mortality at 800 ppm [8] | mortality at 500 ppm [6]

Cc1cccc([S+](C)[O-])c1NC(=S)N/N=C/c1ccc2c(ccc3c2ncn3-c2ccc(OC(F)(F)F)cc2)c1 (centres unmarked) [C-104, 1-(2-methyl-6-methylsulfinyl-phenyl)-3-[(E)-[3-[4-(trifluoromethoxy)phenyl]benzo[e]benzimidazol-7-yl]methyleneamino]thiourea]
≥ 75%: mortality at 500 ppm [1] | mortality at 800 ppm [2] | mortality at 800 ppm [3] | mortality at 800 ppm [4] | mortality at 300 ppm [7] | mortality at 800 ppm [8] | mortality at 500 ppm [6]

Cc1cccc(C)c1NC(=S)N/N=C/c1ccc2c(ccc3c2ncn3-c2ccc(Cl)cc2)c1 [C-106, 1-[(E)-[3-(4-chlorophenyl)benzo[e]benzimidazol-7-yl]methyleneamino]-3-(2,6-dimethylphenyl)thiourea]
≥ 75%: mortality at 800 ppm [2] | mortality at 800 ppm [3] | mortality at 800 ppm [4] | mortality at 300 ppm [7] | mortality at 800 ppm [8]

Cc1cccc(C)c1NC(=S)N/N=C/c1ccc2c(c1)CCc1c-2nn(C)c1-c1ccc(OC(F)(F)F)cc1 [C-107, 1-(2,6-dimethylphenyl)-3-[(E)-[2-methyl-3-[4-(trifluoromethoxy)phenyl]-4,5-dihydrobenzo[g]indazol-7-yl]methyleneamino]thiourea]
≥ 75%: mortality at 500 ppm [1] | mortality at 800 ppm [2] | mortality at 800 ppm [3] | mortality at 800 ppm [4] | mortality at 300 ppm [7] | mortality at 800 ppm [8] | mortality at 500 ppm [6]

Cc1cccc(C)c1NC(=S)N/N=C/c1ccc2c(ccc3c2ncn3-c2ccc(C(F)(F)C(F)(F)F)cc2)c1 [C-110, 1-(2,6-dimethylphenyl)-3-[(E)-[3-[4-(1,1,2,2,2-pentafluoroethyl)phenyl]benzo[e]benzimidazol-7-yl]methyleneamino]thiourea]
≥ 75%: mortality at 800 ppm [2] | mortality at 800 ppm [3] | mortality at 800 ppm [4] | mortality at 800 ppm [5] | mortality at 800 ppm [8]
